Data from US9062124B2, “GIP-based mixed agonists for treatment of metabolic disorders and obesity” (priority 2008, dated 2015).
Where a SMILES comes first, the peptide text is derived from it. Bridges are numbered along the chain shown (N, C = ends). [ ]: non-standard residue; d: D form. Aib = CC(C)(N)C(=O)O

Experiments:
Assay type in all cases: cell-based
[1] = biological target: T1, glucagon receptor (Homo sapiens, UniProt P47871); experiment: cAMP synthesis functional assay (firefly luciferase reporter in HEK293 cells), glucagon receptor; settings: Table 1; relative to the native hormone of the indicated receptor
T1 construct: expressed in transfected cells; host or cells: HEK293
T1 sequence (P47871 26-477): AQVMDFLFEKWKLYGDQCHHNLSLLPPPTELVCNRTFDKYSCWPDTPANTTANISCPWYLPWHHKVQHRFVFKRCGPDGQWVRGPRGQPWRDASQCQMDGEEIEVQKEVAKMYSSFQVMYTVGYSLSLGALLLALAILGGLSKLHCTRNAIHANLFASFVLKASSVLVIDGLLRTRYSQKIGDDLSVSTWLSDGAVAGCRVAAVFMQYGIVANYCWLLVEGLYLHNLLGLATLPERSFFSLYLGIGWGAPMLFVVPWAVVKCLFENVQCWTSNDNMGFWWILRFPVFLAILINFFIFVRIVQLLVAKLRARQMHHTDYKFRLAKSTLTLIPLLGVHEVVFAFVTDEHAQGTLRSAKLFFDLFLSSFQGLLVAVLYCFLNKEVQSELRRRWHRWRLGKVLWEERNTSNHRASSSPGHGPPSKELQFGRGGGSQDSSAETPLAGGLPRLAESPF

[2] = biological target: T2, GLP-1 receptor (Homo sapiens, UniProt P43220); experiment: cAMP synthesis functional assay (firefly luciferase reporter in HEK293 cells), GLP-1 receptor; settings: Table 1; for GLP-1 Receptor relative activity: relative to the native hormone of the indicated receptor; for EC50: GLP-1 Receptor EC50, nM
T2 construct: expressed in transfected cells; host or cells: HEK293
T2 sequence (P43220 24-463, species assumed): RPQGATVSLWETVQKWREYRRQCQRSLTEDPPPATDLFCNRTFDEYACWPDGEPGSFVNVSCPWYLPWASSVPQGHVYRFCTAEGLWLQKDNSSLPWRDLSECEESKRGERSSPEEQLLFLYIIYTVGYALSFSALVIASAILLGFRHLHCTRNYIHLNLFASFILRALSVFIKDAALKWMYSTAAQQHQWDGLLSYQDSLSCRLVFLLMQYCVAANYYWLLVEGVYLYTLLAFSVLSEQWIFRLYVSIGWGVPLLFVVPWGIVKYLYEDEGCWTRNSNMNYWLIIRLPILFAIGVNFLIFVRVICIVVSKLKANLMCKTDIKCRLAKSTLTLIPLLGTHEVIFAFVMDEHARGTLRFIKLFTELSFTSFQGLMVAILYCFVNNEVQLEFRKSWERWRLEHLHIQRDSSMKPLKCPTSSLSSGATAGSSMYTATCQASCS

[3] = biological target: T3, GIP receptor (Homo sapiens, UniProt P48546); experiment: cAMP synthesis functional assay (firefly luciferase reporter in HEK293 cells), GIP receptor; settings: Table 1; for GIP Receptor relative activity: relative to the native hormone of the indicated receptor
T3 construct: expressed in transfected cells; host or cells: HEK293
T3 sequence (P48546 22-466): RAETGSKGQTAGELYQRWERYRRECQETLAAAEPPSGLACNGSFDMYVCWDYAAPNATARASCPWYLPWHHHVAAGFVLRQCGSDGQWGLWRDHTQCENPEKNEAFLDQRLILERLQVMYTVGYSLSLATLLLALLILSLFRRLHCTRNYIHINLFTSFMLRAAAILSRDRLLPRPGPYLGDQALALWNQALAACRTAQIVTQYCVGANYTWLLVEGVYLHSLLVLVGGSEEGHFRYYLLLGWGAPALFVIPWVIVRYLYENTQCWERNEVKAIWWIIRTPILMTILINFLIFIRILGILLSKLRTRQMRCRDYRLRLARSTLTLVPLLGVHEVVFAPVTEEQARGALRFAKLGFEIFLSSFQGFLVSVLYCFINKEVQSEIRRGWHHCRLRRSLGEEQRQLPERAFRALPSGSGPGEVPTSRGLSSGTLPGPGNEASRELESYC

[4] = system: glucagon receptor, GLP-1 receptor or GIP receptor; experiment: Agonist profile across receptors assigned from the cAMP reporter assay data; settings: assigned from the in vitro EC50 data of Tables 1-4

Compound	Glucagon Receptor relative activity [1]	GLP-1 Receptor relative activity [2]	GIP Receptor relative activity [3]	receptor activity profile (glucagon / GLP-1 / GIP agonism) [4]	EC50 [2]	EC50 ([3]; GIP Receptor EC50, nM)
CC[C@H](C)[C@H](NC(=O)[C@H](Cc1ccccc1)NC(=O)[C@H](CCC(=O)O)NC(=O)[C@@H]1CCCCNC(=O)CC[C@H](NC(=O)[C@H](CC(=O)O)NC(=O)[C@H](CC(C)C)NC(=O)[C@H](Cc2ccc(O)cc2)NC(=O)[C@H](CCCCN)NC(=O)[C@H](CO)NC(=O)[C@H](Cc2ccc(O)cc2)NC(=O)[C@H](CC(=O)O)NC(=O)[C@H](CO)NC(=O)[C@@H](NC(=O)[C@H](Cc2ccccc2)NC(=O)[C@@H](NC(=O)CNC(=O)[C@H](CCC(N)=O)NC(=O)[C@H](CO)NC(=O)[C@@H](N)Cc2ccc(O)cc2)[C@@H](C)O)[C@@H](C)O)C(=O)N[C@@H](CCC(N)=O)C(=O)N[C@@H](C)C(=O)N[C@@H](C)C(=O)N1)C(=O)N[C@@H](C)C(=O)N[C@@H](Cc1c[nH]c2ccccc12)C(=O)N[C@@H](CC(C)C)C(=O)N[C@@H](CC(C)C)C(=O)N[C@@H](C)C(=O)NCC(=O)NCC(=O)N1CCC[C@H]1C(=O)N[C@@H](CO)C(=O)N[C@@H](CO)C(=O)NCC(=O)N[C@@H](C)C(=O)N1CCC[C@H]1C(=O)N1CCC[C@H]1C(=O)N1CCC[C@H]1C(=O)N[C@@H](CO)C(N)=O [mt-151] (H-YSQGTFTSDYSKYLDEQAAKEFIAWLLAGGPSSGAPPPS-NH2; lactam 16-20; N-terminus assumed)	30.16%	30.16%	7.28%	exemplary GLP-1/GIP/glucagon triagonist peptides	–	–
CC[C@H](C)[C@H](NC(=O)[C@H](CO)NC(=O)[C@H](Cc1ccc(O)cc1)NC(=O)[C@H](CC(=O)O)NC(=O)[C@H](CO)NC(=O)[C@@H](NC(=O)[C@H](Cc1ccccc1)NC(=O)[C@@H](NC(=O)CNC(=O)[C@H](CCC(N)=O)NC(=O)C(C)(C)NC(=O)[C@@H](N)Cc1ccc(O)cc1)[C@@H](C)O)[C@@H](C)O)C(=O)N[C@@H](Cc1ccc(O)cc1)C(=O)N[C@@H](CC(C)C)C(=O)N[C@@H](CC(=O)O)C(=O)N[C@H]1CCC(=O)NCCCC[C@@H](C(=O)N[C@@H](CCC(=O)O)C(=O)N[C@@H](Cc2ccccc2)C(=O)N[C@H](C(=O)N[C@@H](CC(N)=O)C(=O)N[C@@H](Cc2c[nH]c3ccccc23)C(=O)N[C@@H](CC(C)C)C(=O)N[C@@H](CC(C)C)C(=O)N[C@@H](C)C(=O)NCC(=O)NCC(=O)N2CCC[C@H]2C(=O)N[C@@H](CO)C(=O)N[C@@H](CO)C(=O)NCC(=O)N[C@@H](C)C(=O)N2CCC[C@H]2C(=O)N2CCC[C@H]2C(=O)N2CCC[C@H]2C(=O)N[C@@H](CO)C(N)=O)C(C)C)NC(=O)[C@H](C)NC(=O)[C@H](C)NC(=O)[C@H](CCC(N)=O)NC1=O [mt-152] (H-Y[Aib]QGTFTSDYSIYLDEQAAKEFVNWLLAGGPSSGAPPPS-NH2; lactam 16-20; N-terminus assumed)	36.52%	168.75%	41.19%	exemplary GLP-1/GIP/glucagon triagonist peptides	–	–
CC[C@H](C)[C@H](NC(=O)[C@H](CO)NC(=O)[C@H](Cc1ccc(O)cc1)NC(=O)[C@H](CC(=O)O)NC(=O)[C@H](CO)NC(=O)[C@@H](NC(=O)[C@H](Cc1ccccc1)NC(=O)[C@@H](NC(=O)CNC(=O)[C@H](CCC(N)=O)NC(=O)C(C)(C)NC(=O)[C@@H](N)Cc1ccc(O)cc1)[C@@H](C)O)[C@@H](C)O)C(=O)N[C@@H](Cc1ccc(O)cc1)C(=O)N[C@@H](CC(C)C)C(=O)N[C@@H](CC(=O)O)C(=O)N[C@H]1CCC(=O)NCCCC[C@@H](C(=O)N[C@@H](CCC(=O)O)C(=O)N[C@@H](Cc2ccccc2)C(=O)N[C@H](C(=O)N[C@@H](CS)C(=O)N[C@@H](Cc2c[nH]c3ccccc23)C(=O)N[C@@H](CC(C)C)C(=O)N[C@@H](CC(C)C)C(=O)N[C@@H](C)C(=O)NCC(=O)NCC(=O)N2CCC[C@H]2C(=O)N[C@@H](CO)C(=O)N[C@@H](CO)C(=O)NCC(=O)N[C@@H](C)C(=O)N2CCC[C@H]2C(=O)N2CCC[C@H]2C(=O)N2CCC[C@H]2C(=O)N[C@@H](CO)C(N)=O)C(C)C)NC(=O)[C@H](C)NC(=O)[C@H](C)NC(=O)[C@H](CCC(N)=O)NC1=O [mt-158] (H-Y[Aib]QGTFTSDYSIYLDEQAAKEFVCWLLAGGPSSGAPPPS-NH2; lactam 16-20; N-terminus assumed)	14.90%	102.94%	17.82%	exemplary GLP-1/GIP/glucagon triagonist peptides	–	–
CC[C@H](C)[C@H](NC(=O)[C@H](CC(C)C)NC(=O)[C@H](Cc1c[nH]c2ccccc12)NC(=O)[C@H](CC(N)=O)NC(=O)[C@@H](NC(=O)[C@H](Cc1ccccc1)NC(=O)[C@H](CCC(=O)O)NC(=O)[C@@H]1CCCCNC(=O)CC[C@H](NC(=O)[C@H](CC(=O)O)NC(=O)[C@H](CC(C)C)NC(=O)[C@H](Cc2ccc(O)cc2)NC(=O)[C@H](Cc2ccc(O)cc2)NC(=O)[C@H](CO)NC(=O)[C@H](Cc2ccc(O)cc2)NC(=O)[C@H](CC(=O)O)NC(=O)[C@H](CO)NC(=O)[C@@H](NC(=O)[C@H](Cc2ccccc2)NC(=O)[C@@H](NC(=O)CNC(=O)[C@H](CCC(N)=O)NC(=O)C(C)(C)NC(=O)[C@@H](N)Cc2ccc(O)cc2)[C@@H](C)O)[C@@H](C)O)C(=O)N[C@@H](CCC(N)=O)C(=O)N[C@@H](C)C(=O)N[C@@H](C(C)C)C(=O)N1)C(C)C)C(=O)N[C@@H](C)C(=O)NCC(=O)NCC(=O)N1CCC[C@H]1C(=O)N[C@@H](CO)C(=O)N[C@@H](CO)C(=O)NCC(=O)N[C@@H](C)C(=O)N1CCC[C@H]1C(=O)N1CCC[C@H]1C(=O)N1CCC[C@H]1C(=O)N[C@@H](CO)C(N)=O [mt-162] (H-Y[Aib]QGTFTSDYSYYLDEQAVKEFVNWLIAGGPSSGAPPPS-NH2; lactam 16-20; N-terminus assumed)	0.97%	109.09%	25.74%	exemplary GLP-1/GIP co-agonist peptides	0.011 nM	–
CC[C@H](C)[C@H](NC(=O)[C@H](CO)NC(=O)[C@H](Cc1ccc(O)cc1)NC(=O)[C@H](CC(=O)O)NC(=O)[C@H](CO)NC(=O)[C@@H](NC(=O)[C@H](Cc1ccccc1)NC(=O)[C@@H](NC(=O)CNC(=O)[C@H](CCC(N)=O)NC(=O)C(C)(C)NC(=O)[C@@H](N)Cc1ccc(O)cc1)[C@@H](C)O)[C@@H](C)O)C(=O)N[C@@H](Cc1ccc(O)cc1)C(=O)N[C@@H](CC(C)C)C(=O)N[C@@H](CC(=O)O)C(=O)N[C@H]1CCC(=O)NCCCC[C@@H](C(=O)N[C@@H](CCC(=O)O)C(=O)N[C@@H](Cc2ccccc2)C(=O)N[C@H](C(=O)N[C@@H](CC(N)=O)C(=O)N[C@@H](Cc2c[nH]c3ccccc23)C(=O)N[C@@H](CC(C)C)C(=O)N[C@@H](CC(C)C)C(=O)N[C@@H](C)C(=O)NCC(N)=O)C(C)C)NC(=O)[C@H](C)NC(=O)[C@H](C)NC(=O)[C@H](CCC(N)=O)NC1=O [mt-164] (H-Y[Aib]QGTFTSDYSIYLDEQAAKEFVNWLLAG-NH2; lactam 16-20; N-terminus assumed)	109.93%	56.52%	16.46%	exemplary GLP-1/GIP/glucagon triagonist peptides	–	0.164 nM
CC[C@H](C)[C@H](NC(=O)[C@H](CO)NC(=O)[C@H](Cc1ccc(O)cc1)NC(=O)[C@H](CC(=O)O)NC(=O)[C@H](CO)NC(=O)[C@@H](NC(=O)[C@H](Cc1ccccc1)NC(=O)[C@@H](NC(=O)CNC(=O)[C@H](CCC(N)=O)NC(=O)C(C)(C)NC(=O)[C@@H](N)Cc1ccc(O)cc1)[C@@H](C)O)[C@@H](C)O)C(=O)N[C@@H](Cc1ccc(O)cc1)C(=O)N[C@@H](CC(C)C)C(=O)N[C@@H](CC(=O)O)C(=O)N[C@H]1CCC(=O)NCCCC[C@@H](C(=O)N[C@@H](CCC(=O)O)C(=O)N[C@@H](Cc2ccccc2)C(=O)N[C@H](C(=O)N[C@@H](CC(N)=O)C(=O)N[C@@H](Cc2c[nH]c3ccccc23)C(=O)N[C@@H](CC(C)C)C(=O)N[C@@H](CC(C)C)C(=O)N[C@@H](C)C(=O)NCC(=O)NCC(=O)N2CCC[C@H]2C(=O)N[C@@H](CO)C(=O)N[C@@H](CO)C(=O)NCC(=O)N[C@@H](C)C(=O)N2CCC[C@H]2C(=O)N2CCC[C@H]2C(=O)N2CCC[C@H]2C(=O)N[C@@H](CO)C(=O)N[C@@H](CS)C(N)=O)C(C)C)NC(=O)[C@H](C)NC(=O)[C@H](C)NC(=O)[C@H](CCC(N)=O)NC1=O [mt-165] (H-Y[Aib]QGTFTSDYSIYLDEQAAKEFVNWLLAGGPSSGAPPPSC-NH2; lactam 16-20; N-terminus assumed)	18.81%	147.83%	27.03%	exemplary GLP-1/GIP/glucagon triagonist peptides	0.023 nM	–
